Reference: PMC12175894 (Science Advances, 2025)

Biological target: α2CR (Homo sapiens, UniProt P18825)
Test: BRET Gαi1 activation

α2CR, sequence (P18825 whole entry): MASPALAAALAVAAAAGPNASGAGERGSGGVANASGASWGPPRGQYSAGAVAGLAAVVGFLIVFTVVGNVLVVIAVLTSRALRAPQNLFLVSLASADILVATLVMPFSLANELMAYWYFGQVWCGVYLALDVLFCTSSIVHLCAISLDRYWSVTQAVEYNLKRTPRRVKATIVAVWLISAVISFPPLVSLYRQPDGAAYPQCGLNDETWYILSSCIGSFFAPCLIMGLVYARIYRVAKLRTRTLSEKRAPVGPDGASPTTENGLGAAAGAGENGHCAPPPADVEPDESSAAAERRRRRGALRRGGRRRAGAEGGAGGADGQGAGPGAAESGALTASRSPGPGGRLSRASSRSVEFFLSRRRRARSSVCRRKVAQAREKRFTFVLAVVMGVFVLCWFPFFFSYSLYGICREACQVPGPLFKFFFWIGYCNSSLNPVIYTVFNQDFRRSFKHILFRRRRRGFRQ

## COc1ccccc1OCCNCCCOc1ccc2c(c1)NC(=O)CO2 [ST171]
  intrinsic activity: devoid of intrinsic activity
